The target in one assay is T1, NPY Y2 receptor (Homo sapiens, UniProt P49146).
T1 construct: Functional Y2 receptors have been identified on the cell line SK-N-BE2; endogenous in cells; host or cells: SK-N-BE(2) human neuroblastoma cells (intact, plated cells)
T1 sequence (P49146 1-381): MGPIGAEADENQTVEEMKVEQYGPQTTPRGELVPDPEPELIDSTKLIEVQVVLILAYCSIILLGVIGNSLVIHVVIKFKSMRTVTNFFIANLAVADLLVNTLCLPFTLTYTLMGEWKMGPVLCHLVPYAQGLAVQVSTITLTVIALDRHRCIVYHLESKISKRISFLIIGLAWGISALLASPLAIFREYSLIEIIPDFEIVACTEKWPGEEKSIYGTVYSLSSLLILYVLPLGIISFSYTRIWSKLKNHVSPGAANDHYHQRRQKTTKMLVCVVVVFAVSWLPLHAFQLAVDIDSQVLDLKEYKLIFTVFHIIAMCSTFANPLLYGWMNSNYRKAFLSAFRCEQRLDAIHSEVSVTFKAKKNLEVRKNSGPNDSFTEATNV
Kind of assay: Receptor binding assay, displacement of [125I]PYY from SK-N-BE2 cells. The protocol: (§1) Receptor binding assays are performed using the human neuroblastoma SK-N-MC cells Y1 receptors) and the SK-N-BE(2) cells (Y2 receptors). Cells are grown to confluence in […], trypsinized, and plated into 24 microwells plates (10^5 cells per well). Media for SK-N-MC cells is MEM Eagles (500 mL) buffer, containing L-glutamine (10 Ml, 200 mM, penicillin/streptomycin (5 Ml.10 000 mg/mL), nonessential amino acids (5 mL, 11 mg/mL), fetal calf serum (50 mL, 10%), and 500 μL of fungiyorl. Media for SK-N-BE(2) cells is DME-F12 (500 mL) buffer, containing L-glutamine (10 mL, 200 mM), penicillin/streptomycin (5 mL, 10 000 mg/mL), fetal calf serum (50 mL, 10%), and 500 μL of fungiyorl. After 1 day for the SK-N-BE(2) and 2 days for the SK-N-MC, the cells are grown to the appropriate density and are used for binding assays
(§2) Peptides to be tested are prealiquoted at 100 μg/Ml in 100 μL of solution in MILLI-Q™ water (Millipore, U.S.A.). Solutions of peptides in different concentrations (seven doses from 10^-6 to 10^-10 M) are prepared in binding buffer (0.30M sucrose, 10 mM HEPES, 0.1% BSA, and pH is adjusted to 7.4 with NaOH).
For orientation: Loss of bound radioactivity is the signal in a displacement assay; it reports binding, not function.

The next assay concerns the target T2, NPY Y1 receptor (Homo sapiens, UniProt P25929).
T2 construct: The human SK-N-MC cell line expresses the Y1 receptor subtype; endogenous in cells; host or cells: SK-N-MC human neuroblastoma cells (intact, plated cells)
T2 sequence (P25929 1-384): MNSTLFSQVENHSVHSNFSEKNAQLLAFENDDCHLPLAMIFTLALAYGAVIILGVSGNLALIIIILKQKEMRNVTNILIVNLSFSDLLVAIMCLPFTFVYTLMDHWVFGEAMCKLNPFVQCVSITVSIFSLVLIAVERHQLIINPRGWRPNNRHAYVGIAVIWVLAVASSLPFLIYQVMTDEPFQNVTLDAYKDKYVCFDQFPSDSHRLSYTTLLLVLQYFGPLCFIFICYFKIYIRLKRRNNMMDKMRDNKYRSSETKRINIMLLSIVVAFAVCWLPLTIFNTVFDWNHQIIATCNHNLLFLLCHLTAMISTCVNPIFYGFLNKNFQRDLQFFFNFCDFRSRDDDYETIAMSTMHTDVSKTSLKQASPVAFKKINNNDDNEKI
Briefly: Receptor binding assay, displacement of [125I]PYY from SK-N-MC cells. The protocol:
as §1, §2

The structures appear in SMILES notation. Positions of bridges follow the written chain, without caps; N, C: chain ends. Residues, ends and D or L forms follow the SMILES beside them.

The results in this text go back to patent publication US5569742A (The Salk Institute for Biological Studies, priority 1994, dated 1996).

As usually defined, the Ki is a dissociation constant, usually derived from enzyme kinetics or from competition with a known ligand. Read a low Ki as higher affinity. On to `CC[C@H](C)[C@H](NC(=O)[C@H](Cc1ccc(O)cc1)NC(=O)[C@H](Cc1c[nH]cn1)NC(=O)[C@H](CCCNC(=N)N)NC(=O)[C@H](CC(C)C)NC(=O)[C@H](C)NC(=O)[C@H](CO)NC(=O)[C@@H]1CSSC[C@H](NC(=O)[C@H](CC(=O)O)NC(=O)[C@@H]2CCCN2C(=O)[C@H](CCCCN)NC(=O)[C@H](CO)NC(=O)[C@@H]2CCCN2C(=O)[C@@H](N)Cc2ccc(O)cc2)C(=O)N2CCC[C@H]2C(=O)NCC(=O)N1)C(=O)N[C@@H](CC(N)=O)C(=O)N[C@@H](CC(C)C)C(=O)N[C@H](C(=O)N[C@H](C(=O)N[C@@H](CCCNC(=N)N)C(=O)N1CCC[C@H]1C(=O)N[C@@H](CCCNC(=N)N)C(=O)N[C@@H](Cc1ccc(O)cc1)C(N)=O)[C@@H](C)O)[C@@H](C)CC` [SEQ ID NO:8] (H-YPSKPDCPGCSALRHYINLITRPRY-NH2; disulfide 7-10), for which the Ki on NPY Y2 receptor was above 1000 nM; on NPY Y1 receptor, 32 nM.
